Laboratory results as given in US20140314790A1, “CASPASE 9 INHIBITION AND BRI2 PEPTIDES FOR TREATING DEMENTIA” (ALBERT EINSTEIN COLLEGE OF MEDICINE OF YESHIVA UNIVERSITY, priority 2011, published 2014).
“And” between values parts separate entries of the source, which are not always exact repeats. Identical values can stand only once. Starred links: 1 amine or outer side, 2 acyl side, 3 side chain; linkers in the order of their positions; H or OH if unused. Non-standard residues stand in square brackets, D forms with d. No end group written: not given here. *: point of attachment. E(OMe) = COC(=O)CC[C@H](N[*:1])C(=O)[*:2]; D(OMe) = COC(=O)C[C@H](N[*:1])C(=O)[*:2]; code Z = not defined here; Cbz = O=C(OCc1ccccc1)*; CH2F = FC*

Experiments:
γ-secretase = settings: two values given, not explained; cited from earlier work
[1] = tested on: hippocampal slices of FDDKI and WT mice (Schaeffer collateral pathway LTP); assay: Long-term potentiation (LTP) in hippocampal slices perfused 60 min with test substance; settings: for reversal of LTP deficit in FDDKI mice: 60 min perfusion; for reversal of LTP impairment in FDDKI mice: sixty minute perfusion
Source text: All data are shown as mean±s.e.m. Statistical tests included two-way ANOVA for repeated measures and t-test when appropriate.

[2] = tested on: FDDKI mice and WT littermates; assay: Novel object recognition (NOR) test after injection in the lateral ventricle; assay type: in vivo
β- and α-cleavage of APP = assay: APP processing in HEK293-APP cells, sAPPβ and sAPPα in media by Western blot; settings: for α-processing of APP (sAPPα in media) / β-cleavage of APP (sAPPβ in media): 25 μM, 8 hrs (FIG. 8A); for inhibition of APP processing: 25 μM (FIG. 8A) or 5 μM (FIG. 8B); for inhibition of β-cleavage of APP relative to N3: 5 μM, 8 hrs (FIG. 8B)
Protocol: WB of cell lysates detected APP and α-Tubulin. […] The data are shown as % of inhibition of β-secretase activity in samples without inhibitors.
BRI2-derived peptides and APP processing. APP-transfected HEK293 cells were incubated with the indicated peptides for 8 hrs.

APP = target: T1, APP (Homo sapiens, UniProt P05067); assay: α-Flag precipitation of Flagged peptides from HeLa/APP cells; assay type: binding; settings: for binding to APP (co-precipitation): HeLa/APP cells, 40 μM Flagged peptide, 2 hours
T1 construct: expressed in transfected cells; host or cells: HeLa cells transfected with APP (HeLa-APP)
T1 sequence (P05067 18-770): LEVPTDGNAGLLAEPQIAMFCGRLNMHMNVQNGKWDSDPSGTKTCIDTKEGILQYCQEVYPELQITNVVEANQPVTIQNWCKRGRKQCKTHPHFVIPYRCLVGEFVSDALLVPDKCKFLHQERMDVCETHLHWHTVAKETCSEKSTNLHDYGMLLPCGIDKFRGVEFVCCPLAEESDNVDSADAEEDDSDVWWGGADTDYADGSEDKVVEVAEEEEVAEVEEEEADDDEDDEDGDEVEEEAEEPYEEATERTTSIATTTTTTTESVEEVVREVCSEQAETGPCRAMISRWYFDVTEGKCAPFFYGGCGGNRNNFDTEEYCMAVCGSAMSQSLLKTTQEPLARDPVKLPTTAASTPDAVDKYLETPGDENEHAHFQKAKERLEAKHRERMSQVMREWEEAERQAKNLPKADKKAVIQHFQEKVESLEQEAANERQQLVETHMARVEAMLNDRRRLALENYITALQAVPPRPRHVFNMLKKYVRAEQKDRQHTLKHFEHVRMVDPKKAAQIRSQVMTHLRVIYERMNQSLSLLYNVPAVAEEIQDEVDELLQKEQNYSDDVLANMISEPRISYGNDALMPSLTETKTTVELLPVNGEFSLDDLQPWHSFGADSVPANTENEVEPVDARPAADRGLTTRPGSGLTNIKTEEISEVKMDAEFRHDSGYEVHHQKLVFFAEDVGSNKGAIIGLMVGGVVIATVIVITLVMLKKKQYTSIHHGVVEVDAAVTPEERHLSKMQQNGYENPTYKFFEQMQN
Protocol: (§1) FIG. 8A-8I. 4A BRI2-derived peptide binds APP and inhibits β-cleavage of APP. (A-B) HEK293-APP cells were incubated with the indicated peptides (N1, N2, […] are SEQ ID NOs: 2, 3, 4, 5, 6, 7, 8, and 9, respectively). β- and α-cleavage of APP were quantified by measuring sAPPβ and sAPPα in media by WB. WB of cell lysates detected APP and α-Tubulin. (C-E) WB analysis of lysates (L) or α-Flag IP (IP) from HeLa/APP cells incubated for 2 hours with Flagged peptides. […] (G) Biotinylated cells were cultured as in (C). The reduced and not reduced samples are indicated (+red and −red, respectively). Lysates (L), α-Flag IP eluted with Flag-peptide (E), eluted sample precipitated with streptavidin-beads [both the fraction unbound (U) and bound (B) to streptavidin-beads], were probed for APP in WB. (H) Purified β-secretase was incubated with fluorescent β-secretase substrate for 30 minutes, resulting in β-cleavage that could be detected by fluorescence increase. […] The data are shown as % of inhibition of β-secretase activity in samples without inhibitors. (I) Model of N3-2A/MoBA activity.
Precipitation with FLAG-peptides. To prepare brain cells, mouse brains were washed in PBS and minced in dissociation buffer. After sedimentation and filtration, dissociated cells were cultured in Neurobasal media. Cells incubated with Flagged-peptides were lysed and precipitated with Flag-M2-agarose-beads as described (Matsuda et al, 2005). Bound proteins were eluted with 100 μg/ml of FLAG peptide.
A BRI2-derived peptide binds APP and inhibits β-cleavage of APP. It was tested whether peptides spanning this domain duplicated BRI2's function. […] Next it was examined if N3-2A (SEQ ID NO:5) binds APP. HeLa-APP cells were cultured with or without N3-2A fused to a C-terminal Flag epitope (N3-2A-F). After 2 hrs of incubation, cell lysates were precipitated with α-Flag-agarose-beads and co-precipitated molecules were eluted with a Flag-peptide.

endogenous APP = target: T2, endogenous APP (Mus musculus, UniProt P12023); assay: α-Flag precipitation of Flagged peptide from cultured brain cells; assay type: binding
T2 construct: endogenous in cells; host or cells: dissociated mouse brain cells cultured in Neurobasal media
T2 sequence (P12023 18-770): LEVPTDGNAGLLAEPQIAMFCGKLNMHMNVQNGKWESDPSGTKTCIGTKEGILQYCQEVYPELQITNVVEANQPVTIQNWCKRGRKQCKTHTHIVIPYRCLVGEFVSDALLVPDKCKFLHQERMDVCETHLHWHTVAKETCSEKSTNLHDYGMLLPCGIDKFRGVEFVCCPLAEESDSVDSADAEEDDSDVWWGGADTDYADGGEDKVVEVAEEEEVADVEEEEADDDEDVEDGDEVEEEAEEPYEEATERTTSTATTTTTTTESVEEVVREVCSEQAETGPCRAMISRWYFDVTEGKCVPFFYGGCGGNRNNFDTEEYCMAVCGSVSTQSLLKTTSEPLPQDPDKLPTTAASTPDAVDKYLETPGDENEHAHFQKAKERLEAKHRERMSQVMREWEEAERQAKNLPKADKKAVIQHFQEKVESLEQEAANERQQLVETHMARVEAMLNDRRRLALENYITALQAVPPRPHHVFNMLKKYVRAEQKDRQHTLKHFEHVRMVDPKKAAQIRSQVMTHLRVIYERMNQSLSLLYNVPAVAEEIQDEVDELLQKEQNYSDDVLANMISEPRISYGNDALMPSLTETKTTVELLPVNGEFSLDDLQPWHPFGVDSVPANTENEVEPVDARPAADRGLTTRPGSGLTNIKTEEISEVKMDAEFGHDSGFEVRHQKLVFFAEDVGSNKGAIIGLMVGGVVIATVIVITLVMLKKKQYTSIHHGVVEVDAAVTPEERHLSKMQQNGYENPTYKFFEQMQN
Protocol: as §1
Precipitation with FLAG-peptides. To prepare brain cells, mouse brains were washed in PBS and minced in dissociation buffer. After sedimentation and filtration, dissociated cells were cultured in Neurobasal media. […]

purified β-secretase = target: T3, purified β-secretase (Homo sapiens, UniProt P56817); assay: β-secretase FRET activity assay with purified enzyme; assay type: biochemical; settings: fluorescent β-secretase substrate, 30 minutes
T3 construct: purchased Invitrogen
T3 sequence (P56817 46-501): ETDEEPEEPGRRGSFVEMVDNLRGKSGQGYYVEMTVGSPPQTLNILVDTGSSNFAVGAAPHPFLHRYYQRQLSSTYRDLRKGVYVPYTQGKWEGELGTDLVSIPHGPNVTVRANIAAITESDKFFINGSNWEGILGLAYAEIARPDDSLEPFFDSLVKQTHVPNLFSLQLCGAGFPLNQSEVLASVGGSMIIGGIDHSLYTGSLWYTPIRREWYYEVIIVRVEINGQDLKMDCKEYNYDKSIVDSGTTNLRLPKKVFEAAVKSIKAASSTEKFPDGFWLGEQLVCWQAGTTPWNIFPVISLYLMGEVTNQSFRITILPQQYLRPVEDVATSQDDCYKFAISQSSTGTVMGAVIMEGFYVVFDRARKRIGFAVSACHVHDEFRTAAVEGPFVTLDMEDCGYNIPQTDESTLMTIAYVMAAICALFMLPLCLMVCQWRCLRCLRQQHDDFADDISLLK
Protocol: WB of cell lysates detected APP and α-Tubulin. (C-E) WB analysis of lysates (L) or α-Flag IP (IP) from HeLa/APP cells incubated for 2 hours with Flagged peptides. […] (G) Biotinylated cells were cultured as in (C). The reduced and not reduced samples are indicated (+red and −red, respectively). […] The data are shown as % of inhibition of β-secretase activity in samples without inhibitors.

rat models of stroke = settings: cited from earlier work
[3] = tested on: primary hippocampal neuron cultures; settings: cited from earlier work
[4] = FDDKI mice, 1 μl of PBS/500 μM in lateral ventricle, 1 hr before training and testing
[5] = FDDKI mice, 1 μl of PBS/100 μM in lateral ventricle

## C[C@H](NC(=O)Cc1cc(F)cc(F)c1)C(=O)N[C@H]1N=C(c2ccccc2)c2ccccc2N(C)C1=O [compound-E]
γ-secretase
  IC50: 0.3 nM and 0.24 nM
[1]; FDDKI slices, 1 nM
  rescue of LTP defect in FDDKI samples: does not rescue the LTP defect in FDDKI samples
[1]; WT slices, compound-E 1 nM
  effect on LTP of WT mice: do not alter LTP of WT mice
[2]; FDDKI mice, 1 μl of PBS/300 nM compound-E
  rescue of memory deficit of FDDKI mice (NOR): does not
[2]; FDDKI mice, ten-fold higher dose, 1 μl of PBS/3 μM compound-E
  rescue of memory deficit of FDDKI mice (NOR): did not correct the memory deficit of Danish mice
[2]; WT mice, 1 μl of PBS/300 nM compound-E
  performance of WT animals (NOR): nor altered performance of WT animals
[2]; WT mice, ten-fold higher dose, 1 μl of PBS/3 μM compound-E
  memory of WT mice (NOR): showed a trend, though not statistically significant, toward memory impairment

## DDVYYCGLKY (FRAGMENT DIRECTED TO A HOMO SAPIENS PROTEIN) [N3]
β- and α-cleavage of APP
  α-processing of APP (sAPPα in media): moderately decreased α-processing of APP
  β-cleavage of APP (sAPPβ in media): strongly reduced β-cleavage

## N3-4A-F: Flagged single amino acid N3 mutant (DDVAYCGLKY-{Flag epitope})
β- and α-cleavage of APP
  inhibition of APP processing: do not inhibit APP processing
APP
  binding to APP (co-precipitation): did not bind APP

## ILNEPSADAP (FRAGMENT DIRECTED TO HUMAN PROTEIN) [N6]
β- and α-cleavage of APP
  inhibition of APP processing: does not inhibit APP processing
[1]; FDDKI slices, 1 μM
  reversal of LTP deficit in FDDKI mice: does not rescue the LTP deficit

## Z-D(OMe)-E(OMe)-V-D(OMe)-FMK [Z-DEVD-FMK]
[2]; [4]
  rescue of memory deficit of FDDKI mice (NOR): does not
[2]; WT mice, 1 μl of PBS/500 μM in lateral ventricle
  performance of WT animals (NOR): nor altered performance of WT animals

## N3-2A-F: N3-2A fused to a C-terminal Flag epitope (DAVYYCGLKY-{Flag epitope})
Endogenous APP
  binding to endogenous APP: binds endogenous APP
APP
  binding to APP (co-precipitation): binds mature APP

## DAVYYCGLKY (FRAGMENT DIRECTED TO A HOMO SAPIENS PROTEIN) [N3-2A]
Purified β-secretase
  inhibition of β-secretase activity: did not inhibit the activity of purified β-secretase
β- and α-cleavage of APP; 5 μM (FIG. 8B)
  α-processing of APP: did not overtly inhibit α-processing of APP
β- and α-cleavage of APP
  inhibition of β-cleavage of APP relative to N3: stronger inhibitor of APP processing by β-secretase
[1]; FDDKI slices, 10 nM
  reversal of LTP deficit in FDDKI mice: reversed the LTP deficit of FDDKI samples
[1]; FDDKI slices, 1 μM
  reversal of LTP deficit in FDDKI mice: reversed the LTP deficit of FDDKI samples
[1]; WT slices, 1 μM
  effect on LTP of WT mice: does not alter LTP of WT mice
APP; HeLa/APP cells (FIG. 8C, D)
  binding to β-CTF: does not bind β-CTF
APP; untagged peptide added to media containing 40 μM N3-2A-F
  competition for binding to APP: could compete for binding to APP
[2]; [5]
  rescue of memory deficit of FDDKI mice (NOR): transiently rescue this memory deficit

## Z-L-E(OMe)-H-D(OMe)-FMK.TFA ({code Z}-L[E(OMe)]H[D(OMe)]-CH2F; reading uncertain; also: TFA salt, printed as Z-L-E(OMe)-H-D(OMe)-FMK.TFA) [Z-LEHD-FMK]
[1]; FDDKI slices, 2 μM
  reversal of LTP impairment in FDDKI mice: reverse LTP impairment in FDDKI mice
[1]; WT untreated vs. WT treated with Z-LEHD-FMK
  effect on LTP of WT mice: does not alter LTP of WT mice
[2]; [4]
  rescue of memory deficit of FDDKI mice (NOR): transiently rescue this memory deficit

## Cbz-Val-Ala-Asp(OMe)-CH2F [Z-VAD-FMK]
[1]; FDDKI slices, 10 μM
  reversal of LTP impairment in FDDKI mice: reverse LTP impairment in FDDKI mice

## ADVYYCGLKY (FRAGMENT DIRECTED TO HOMO SAPIENS PROTEIN) [N3-1A]
β- and α-cleavage of APP
  inhibition of β-cleavage of APP relative to N3: stronger inhibitor of APP processing by β-secretase

## Pen1-XBIR3: XIAP-BIR3 domain disulfide-linked to cell-penetrating peptide Penetratin1; specific inhibitor of active caspase-9
Rat models of stroke; direct parenchymal or intranasal delivery, rat
  therapeutic effect: therapeutically effective
Rat models of stroke; in vivo model of cerebral ischemia
  caspase-9 block after delivery to the CNS: blocks caspase-9
Rat models of stroke; one dose
  functional protection against ischemia post-infarction: 3 weeks
[3]
  caspase-9 dependent cell death: inhibits caspase-9 dependent cell death
[2]; FDDKI mice, NOR without treatments after 5 days of rest
  persistence of therapeutic effect post injection: at least 5 days
[2]; FDDKI mice, lateral ventricle, 2 μl of PBS/23 μM Pen1-XBIR3 or 2 μl of PBS/16 μM Pen1-CrmA, 1 h before training and testing
  rescue of memory deficit of FDDKI mice (NOR): rescues this memory deficit
[2]; FDDKI mice, no further treatments
  therapeutic effect in NOR test repeated 5 days later: still significant
[2]; WT mice, 2 μl of PBS/23 μM Pen1-XBIR3 or 2 μl of PBS/16 μM Pen1-CrmA
  memory in WT animals (NOR): Neither Pen1-XBIR3 nor Pen1-CrmA altered memory in WT animals

## β-secretase-inhibitor IV
[1]; FDDKI slices, 50 nM
  rescue of LTP impairment in FDDKI mice: rescues LTP impairment in FDDKI mice
[1]; WT slices, β-secretase inhibitor IV 50 nM
  effect on LTP of WT mice: do not alter LTP of WT mice
[2]; [5]
  rescue of memory deficit of FDDKI mice (NOR): transiently rescue this memory deficit

## DDVYYCGLKYIKDD (FRAGMENT DIRECTED TO HUMAN PROTEIN) [N8]
β- and α-cleavage of APP
  α-processing of APP (sAPPα in media): moderately decreased α-processing of APP
  β-cleavage of APP (sAPPβ in media): strongly reduced β-cleavage
